The target in one assay is BaF3 (EGFR-D770insSVD) (Homo sapiens, UniProt P00533, DUP768-770, cells depend on it). Briefly: Test 2: BaF3 (EGFR-D770insSVD) cell proliferation test. Conditions: 72 hours, Cell Titer-Glo, read-out: Test 2 - IC50. It counts as cell-based. As to the method:
Test 2: BaF3 (EGFR-D770insSVD) Cell Proliferation Test
BaF3 (EGFR-D770insSVD) was cultured in RPMI1640 medium containing 10% fetal bovine serum and 2 mM glutamine. The cells were grown at 37° C. in a humidified incubator with 5% CO2.
(§1) The number of viable cells in the culture was measured according to the protocol described in Promega's Cell Titer-Glo Luminescent cell Viability Assay (Promega catalog number #G7570). 90 μl of cells (3,000 cells/well) were cultured in growth medium in a Corning black transparent bottom 96-well plate, and cultured in a 5% CO2 humidified incubator at 37° C. overnight. The compound serially diluted in 100% DMSO was added to the cells using a pipette, and the cells were incubated for another 72 hours. 100 μl of the mixed Cell Titer-Glo reagent was added to the cells in the 96-well culture plate to lyse the cells and mix gently. Subsequently, the […] was detected on the Envision microplate detector to obtain the data of each compound. Finally, the data was input into a suitable software package (such as Prism) for curve fitting analysis.
For orientation: ATP-based viability assays read luminescence as a measure of living cells.

The next assay concerns the target BaF3 (EGFR-N771insH) (Homo sapiens, UniProt P00533, INS771H, cells depend on it). Briefly: Test 5: BaF3 (EGFR-N771insH) cell proliferation test. The assay is classed as cell-based. To be noted: 72 hours, Cell Titer-Glo, read-out: Test 5 - IC50. On the procedure:
Test 5: BaF3 (EGFR-N771insH) Cell Proliferation Test
BaF3 (EGFR-N771insH) was cultured in RPMI1640 medium containing 10% fetal bovine serum and 2 mM glutamine. The cells were grown at 37° C. in a humidified incubator with 5% CO2.
as §1

The target of a further assay is BaF3 (EGFR-D770insNPG) (Homo sapiens, UniProt P00533, INS772GNP, cells depend on it). Briefly: Test 6: BaF3 (EGFR-D770insNPG) cell proliferation test. It counts as cell-based. To be noted: 72 hours, Cell Titer-Glo, read-out: Test 6 - IC50. As to the method:
Test 6: BaF3 (EGFR-D770insNPG) Cell Proliferation Test
BaF3 (EGFR-D770insNPG) was cultured in RPMI1640 medium containing 10% fetal bovine serum and 2 mM glutamine. The cells were grown at 37° C. in a humidified incubator with 5% CO2.
as §1

In the next assay the target is BaF3 (EGFR-S768I) (Homo sapiens, UniProt P00533, S768I, cells depend on it). Briefly: Test 7: BaF3 (EGFR-S768I) cell proliferation test. The assay is classed as cell-based. To be noted: 72 hours, Cell Titer-Glo, read-out: Test 7 - IC50. On the procedure: Test 7: BaF3 (EGFR-S768I) Cell Proliferation Test
BaF3 (EGFR-S768I) was cultured in RPMI1640 medium containing 10% fetal bovine serum and 2 mM glutamine. The cells were grown at 37° C. in a humidified incubator with 5% CO2.
as §1

The target of another assay is BaF3 (EGFR-L861Q) (Homo sapiens, UniProt P00533, L861Q, cells depend on it). Briefly: Test 8: BaF3 (EGFR-L861Q) cell proliferation test. It counts as cell-based. Conditions: 72 hours, Cell Titer-Glo, read-out: Test 8 - IC50. On the procedure:
Test 8: BaF3 (EGFR-L8610) Cell Proliferation Test
BaF3 (EGFR-L861Q) was cultured in RPMI1640 medium containing 10% fetal bovine serum and 2 mM glutamine. The cells were grown at 37° C. in a humidified incubator with 5% CO2.
as §1

Another assay concerns the target BaF3 (HER2-A775insYVMA) (Homo sapiens, UniProt P04626, DUP772-775, cells depend on it). Briefly: Test 9: BaF3 (HER2-A775insYVMA) cell proliferation test. It counts as cell-based. Conditions: 72 hours, Cell Titer-Glo, read-out: Test 9 - IC50. As to the method: Test 9: BaF3 (HER2-A775insYVMA) Cell Proliferation Test
BaF3 (HER2-A775insYVMA) was cultured in RPMI1640 medium containing 10% fetal bovine serum and 2 mM glutamine. The cells were grown at 37° C. in a humidified incubator with 5% CO2.
as §1

A further assay addresses BaF3 (HER2-P780insGSP) (Homo sapiens, UniProt P04626, DUP778-780, cells depend on it). Briefly: Test 10: BaF3 (HER2-P780insGSP) cell proliferation test. It counts as cell-based. Conditions: 72 hours, Cell Titer-Glo, read-out: Test 10 - IC50. As to the method:
Test 10: BaF3 (HER2-P780insGSP) Cell Proliferation Test
BaF3 (HER2-P780insGSP) was cultured in RPMI1640 medium containing 10% fetal bovine serum and 2 mM glutamine. The cells were grown at 37° C. in a humidified incubator with 5% CO2.
as §1

Another assay has as its target BaF3 (HER2-G776insVC) (Homo sapiens, UniProt P04626, cells depend on it, form not given). Briefly: Test 11: BaF3 (HER2-G776insVC) cell proliferation test. It counts as cell-based. To be noted: 72 hours, Cell Titer-Glo, read-out: Test 11 - IC50. As to the method: Test 11: BaF3 (HER2-G776insVC) Cell Proliferation Test
The engineered cell line BaF3 (HER2-G776insVC) was constructed by the inventor himself (for the method of cell line construction, see Jingrui Jiang et al., Cancer Res. 2005 Oct. 1; 65 (19): 8964-74; Jacqulyne P. Robichaux et al., Nat Med. 2018 May; 24 (5): 638-646). BaF3 (HER2-G776insVC) was cultured in RPMI1640 medium containing 10% fetal bovine serum and 2 mM glutamine. The cells were grown at 37° C. in a humidified incubator with 5% CO2.
as §1

Another assay deals with T1, HER4 kinase (Homo sapiens, UniProt Q15303).
T1 construct: made in house
Briefly: Test 12: HER4 kinase screening test. The assay is classed as binding. To be noted: for inhibition at 1 µM: compound concentration 1 μM, read-out: 1 μM Inhibition rate (%); for inhibition at 10 µM: compound concentration 10 μM, read-out: 10 μM Inhibition rate (%). On the procedure: Test 12: HER4 Kinase Screening Test
Most kinase activity tests were carried out by T7 phage expressing kinase expressed in E. coli system. After E. coli grew to the logarithmic phase, E. coli was infected with T7 bacteriophage (moi=0.4) and cultured with shaking at 32° C. until lysis (90-150 minutes). The lysate was filtered with a centrifuge (6,000 g) and filtration membrane (0.2 μm) to remove cell debris. Other individual kinases to be tested were expressed by HEK-293 cells and labeled with DNA for qPCR detection.
Next, the ligand magnetic beads were blocked with excess biotin and washed with blocking buffer (SeaBlock (Pierce), 1% BSA, 0.05% Tween-20, 1 mm DTT) to remove unbound ligand and reduce non-specific binding of phages. […] 100% DMSO was used to prepare the test compound at a concentration of 40×, which was directly diluted into the reaction system. All reactions were carried out on a polypropylene 384-well plate, and the final volume of the reaction system was 0.02 ml.

Structures are written as SMILES.

Chain of BaF3 (EGFR-D770insNPG) (P00533 with tags, fused parts or gaps INS772GNP): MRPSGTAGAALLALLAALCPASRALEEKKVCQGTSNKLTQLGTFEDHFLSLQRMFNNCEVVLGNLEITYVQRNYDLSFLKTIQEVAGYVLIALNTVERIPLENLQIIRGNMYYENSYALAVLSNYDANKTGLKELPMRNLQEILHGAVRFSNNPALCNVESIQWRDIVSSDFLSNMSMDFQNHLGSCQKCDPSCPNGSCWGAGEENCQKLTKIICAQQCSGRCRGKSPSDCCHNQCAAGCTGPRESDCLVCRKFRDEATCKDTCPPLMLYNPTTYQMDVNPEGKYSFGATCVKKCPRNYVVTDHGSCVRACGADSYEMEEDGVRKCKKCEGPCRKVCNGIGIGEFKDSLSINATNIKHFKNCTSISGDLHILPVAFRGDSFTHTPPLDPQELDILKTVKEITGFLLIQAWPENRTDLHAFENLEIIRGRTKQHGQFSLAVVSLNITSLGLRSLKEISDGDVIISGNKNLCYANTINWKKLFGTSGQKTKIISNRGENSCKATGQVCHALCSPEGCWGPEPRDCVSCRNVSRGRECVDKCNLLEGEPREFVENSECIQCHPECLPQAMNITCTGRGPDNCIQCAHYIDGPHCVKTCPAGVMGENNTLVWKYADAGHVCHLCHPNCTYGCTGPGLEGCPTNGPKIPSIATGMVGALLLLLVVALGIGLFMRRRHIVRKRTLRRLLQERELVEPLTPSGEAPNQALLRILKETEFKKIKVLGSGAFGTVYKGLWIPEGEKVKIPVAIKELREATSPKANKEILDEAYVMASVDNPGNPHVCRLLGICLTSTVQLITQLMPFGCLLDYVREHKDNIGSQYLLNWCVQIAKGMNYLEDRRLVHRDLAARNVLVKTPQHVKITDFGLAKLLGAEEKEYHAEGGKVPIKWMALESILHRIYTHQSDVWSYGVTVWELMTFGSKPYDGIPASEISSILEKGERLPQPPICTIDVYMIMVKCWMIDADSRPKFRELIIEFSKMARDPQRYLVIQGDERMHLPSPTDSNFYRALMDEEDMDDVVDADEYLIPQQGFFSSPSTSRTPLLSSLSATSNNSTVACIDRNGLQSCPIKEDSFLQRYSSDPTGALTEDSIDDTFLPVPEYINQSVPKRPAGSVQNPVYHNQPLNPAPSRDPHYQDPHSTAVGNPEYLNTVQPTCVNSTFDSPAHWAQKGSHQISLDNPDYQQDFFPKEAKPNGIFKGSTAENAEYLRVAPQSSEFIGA
Chain of BaF3 (HER2-P780insGSP) (P04626 with tags, fused parts or gaps DUP778-780): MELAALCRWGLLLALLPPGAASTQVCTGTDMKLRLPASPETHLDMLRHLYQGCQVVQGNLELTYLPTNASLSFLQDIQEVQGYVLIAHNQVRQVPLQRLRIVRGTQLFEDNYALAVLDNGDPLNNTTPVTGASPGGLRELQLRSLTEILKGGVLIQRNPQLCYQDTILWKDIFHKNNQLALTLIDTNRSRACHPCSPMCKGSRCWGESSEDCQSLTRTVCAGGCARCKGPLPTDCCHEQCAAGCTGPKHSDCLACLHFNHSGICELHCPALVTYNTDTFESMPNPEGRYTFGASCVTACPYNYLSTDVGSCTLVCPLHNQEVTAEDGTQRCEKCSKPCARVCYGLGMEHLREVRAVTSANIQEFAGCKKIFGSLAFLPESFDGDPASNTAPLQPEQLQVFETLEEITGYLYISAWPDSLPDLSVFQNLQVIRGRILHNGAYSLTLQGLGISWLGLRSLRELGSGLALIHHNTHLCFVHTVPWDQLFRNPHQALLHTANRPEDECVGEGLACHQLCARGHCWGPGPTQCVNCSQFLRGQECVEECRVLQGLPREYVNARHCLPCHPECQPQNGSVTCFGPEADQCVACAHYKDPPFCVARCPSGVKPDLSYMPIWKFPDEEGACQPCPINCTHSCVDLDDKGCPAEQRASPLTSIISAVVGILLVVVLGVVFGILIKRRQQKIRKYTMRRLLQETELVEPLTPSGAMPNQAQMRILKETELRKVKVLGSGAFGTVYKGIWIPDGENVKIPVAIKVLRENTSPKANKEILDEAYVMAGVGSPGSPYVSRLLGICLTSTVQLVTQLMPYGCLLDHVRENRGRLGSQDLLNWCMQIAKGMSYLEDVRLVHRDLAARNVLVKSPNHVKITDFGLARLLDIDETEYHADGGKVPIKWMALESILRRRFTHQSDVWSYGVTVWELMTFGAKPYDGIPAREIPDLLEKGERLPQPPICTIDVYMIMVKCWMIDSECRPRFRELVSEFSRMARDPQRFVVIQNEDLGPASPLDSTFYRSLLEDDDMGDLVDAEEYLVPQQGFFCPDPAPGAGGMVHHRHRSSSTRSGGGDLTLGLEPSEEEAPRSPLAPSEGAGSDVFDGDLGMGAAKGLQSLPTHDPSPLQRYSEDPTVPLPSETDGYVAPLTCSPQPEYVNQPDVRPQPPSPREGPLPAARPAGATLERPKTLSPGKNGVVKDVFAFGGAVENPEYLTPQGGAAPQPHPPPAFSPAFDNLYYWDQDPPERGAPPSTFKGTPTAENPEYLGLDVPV
Chain of BaF3 (HER2-A775insYVMA) (P04626 with tags, fused parts or gaps DUP772-775): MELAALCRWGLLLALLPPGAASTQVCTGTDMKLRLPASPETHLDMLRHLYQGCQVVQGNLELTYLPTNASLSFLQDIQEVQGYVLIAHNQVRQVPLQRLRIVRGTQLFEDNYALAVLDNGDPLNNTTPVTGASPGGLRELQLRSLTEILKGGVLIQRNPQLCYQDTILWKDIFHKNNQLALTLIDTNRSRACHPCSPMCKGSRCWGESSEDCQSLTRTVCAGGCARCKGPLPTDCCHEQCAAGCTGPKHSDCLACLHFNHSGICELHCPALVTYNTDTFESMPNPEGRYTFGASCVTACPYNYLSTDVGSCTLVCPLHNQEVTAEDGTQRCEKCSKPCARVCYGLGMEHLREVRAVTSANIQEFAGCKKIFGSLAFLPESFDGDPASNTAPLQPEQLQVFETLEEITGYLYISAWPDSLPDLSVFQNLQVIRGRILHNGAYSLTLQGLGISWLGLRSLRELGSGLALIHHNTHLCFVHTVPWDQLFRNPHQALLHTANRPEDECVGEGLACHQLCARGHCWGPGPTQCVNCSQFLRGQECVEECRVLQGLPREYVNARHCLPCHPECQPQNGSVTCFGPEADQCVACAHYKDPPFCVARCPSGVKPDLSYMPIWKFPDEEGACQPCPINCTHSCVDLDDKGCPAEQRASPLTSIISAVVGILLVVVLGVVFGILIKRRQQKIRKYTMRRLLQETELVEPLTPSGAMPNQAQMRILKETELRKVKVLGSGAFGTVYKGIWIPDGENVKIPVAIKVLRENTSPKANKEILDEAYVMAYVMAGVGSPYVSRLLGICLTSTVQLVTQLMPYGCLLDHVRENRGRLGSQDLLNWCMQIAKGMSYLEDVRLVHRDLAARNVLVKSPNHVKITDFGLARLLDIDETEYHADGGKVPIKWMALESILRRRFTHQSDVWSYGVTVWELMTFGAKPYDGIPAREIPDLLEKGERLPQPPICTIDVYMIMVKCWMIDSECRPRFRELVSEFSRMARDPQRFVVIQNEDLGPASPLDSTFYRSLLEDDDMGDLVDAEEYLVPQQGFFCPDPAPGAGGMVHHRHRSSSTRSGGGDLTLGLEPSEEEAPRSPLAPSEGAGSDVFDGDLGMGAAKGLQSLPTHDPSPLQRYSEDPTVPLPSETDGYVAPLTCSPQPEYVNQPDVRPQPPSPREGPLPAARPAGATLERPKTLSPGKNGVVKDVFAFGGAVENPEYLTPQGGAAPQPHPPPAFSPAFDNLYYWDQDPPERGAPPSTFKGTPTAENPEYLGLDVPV
Chain of BaF3 (EGFR-L861Q) (P00533 whole entry L861Q): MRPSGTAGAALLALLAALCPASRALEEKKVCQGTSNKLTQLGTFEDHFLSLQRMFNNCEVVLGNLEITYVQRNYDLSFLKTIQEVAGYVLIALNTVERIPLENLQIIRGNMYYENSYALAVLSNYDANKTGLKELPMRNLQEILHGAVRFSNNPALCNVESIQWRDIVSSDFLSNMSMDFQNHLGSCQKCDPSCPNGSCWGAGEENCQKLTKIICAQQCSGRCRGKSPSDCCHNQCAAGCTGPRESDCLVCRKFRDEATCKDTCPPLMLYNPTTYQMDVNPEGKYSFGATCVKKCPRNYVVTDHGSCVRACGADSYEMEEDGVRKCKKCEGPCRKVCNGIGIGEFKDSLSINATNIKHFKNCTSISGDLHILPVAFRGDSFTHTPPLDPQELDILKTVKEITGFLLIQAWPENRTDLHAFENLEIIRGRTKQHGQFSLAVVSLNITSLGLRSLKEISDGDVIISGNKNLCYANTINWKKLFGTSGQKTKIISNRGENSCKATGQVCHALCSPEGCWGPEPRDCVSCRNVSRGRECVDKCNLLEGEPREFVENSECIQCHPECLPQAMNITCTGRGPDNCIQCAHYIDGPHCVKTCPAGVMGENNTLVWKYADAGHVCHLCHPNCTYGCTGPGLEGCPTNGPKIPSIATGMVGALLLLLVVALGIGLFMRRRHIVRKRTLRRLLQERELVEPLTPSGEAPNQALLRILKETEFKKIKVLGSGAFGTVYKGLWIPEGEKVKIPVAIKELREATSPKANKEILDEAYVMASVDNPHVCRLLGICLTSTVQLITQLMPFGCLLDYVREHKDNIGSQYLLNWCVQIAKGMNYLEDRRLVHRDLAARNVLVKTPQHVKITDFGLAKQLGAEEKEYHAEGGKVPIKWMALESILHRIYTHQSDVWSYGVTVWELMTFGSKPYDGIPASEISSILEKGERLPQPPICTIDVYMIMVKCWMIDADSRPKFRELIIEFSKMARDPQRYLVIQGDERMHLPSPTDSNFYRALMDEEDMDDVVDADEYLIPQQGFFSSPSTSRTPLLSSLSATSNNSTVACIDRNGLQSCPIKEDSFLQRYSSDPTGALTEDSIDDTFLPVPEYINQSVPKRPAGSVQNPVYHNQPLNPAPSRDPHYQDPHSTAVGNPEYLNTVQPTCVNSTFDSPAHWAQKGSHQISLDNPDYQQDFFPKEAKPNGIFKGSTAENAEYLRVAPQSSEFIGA

For orientation: inhibition means the drop in the measured response relative to a control, in per cent. As for `C=CC(=O)Nc1cc(Nc2ncnc(-c3cn(C)c4ccc(F)cc34)n2)c(OC(F)F)cc1N(C)CCN(C)C` [Example 14, N-(4-(difluoromethoxy)-2-((2-(dimethylamino)ethyl)(methyl)amino)-5-((4-(5-fluoro-1-methyl-1H-indol-3-yl)-1,3,5-triazin-2-yl)amino)phenyl)acrylamide], the GI50 came to 16.4 nM at BaF3 (EGFR-D770insSVD); 9.21 nM at BaF3 (EGFR-N771insH); 10 nM at BaF3 (EGFR-D770insNPG); 8.91 nM on BaF3 (EGFR-S768I); 4.58 nM at BaF3 (EGFR-L861Q); 12.4 nM at BaF3 (HER2-A775insYVMA). Further, the GI50 on BaF3 (HER2-P780insGSP) was 6.92 nM; on BaF3 (HER2-G776insVC) it was 1.95 nM. The inhibition at 1 µM on HER4 kinase was more than 98%. Moreover, the inhibition at 10 µM at HER4 kinase is more than 98%.

With `C=CC(=O)Nc1cc(Nc2ncnc(-c3cn(C)c4ccc(F)cc34)n2)c(OC)cc1N(C)CCN(C)C` [Example 11], the GI50 at BaF3 (EGFR-D770insSVD) is 22.3 nM; on BaF3 (EGFR-N771insH), 9.19 nM; at BaF3 (EGFR-D770insNPG), 10.2 nM; on BaF3 (EGFR-S768I) it was 38.1 nM; on BaF3 (EGFR-L861Q) it was 22.5 nM; on BaF3 (HER2-A775insYVMA), 14.2 nM. The GI50 amounted to 8.76 nM at BaF3 (HER2-P780insGSP) and 1.07 nM at BaF3 (HER2-G776insVC). On HER4 kinase, the inhibition at 1 µM is more than 95%. The inhibition at 10 µM at HER4 kinase is more than 95%.

With `C=CC(=O)Nc1cc(Nc2ncnc(-c3cn(C)c4ccc(F)cc34)n2)c(OCC(F)(F)F)cc1N(C)CCN(C)C` [Example 15, N-(2-((2-(dimethylamino)ethyl)(methyl)amino)-5-((4-(5-fluoro-1-methyl-1H-indol-3-yl)-1,3,5-triazin-2-yl)amino)-4-(2,2,2-trifluoroethoxy)phenyl)acrylamide], the GI50 on BaF3 (EGFR-D770insSVD) came out at 24.4 nM; at BaF3 (EGFR-N771insH) it was 7.66 nM; at BaF3 (EGFR-D770insNPG) it was 8.87 nM; at BaF3 (EGFR-S768I) it was 7.41 nM; at BaF3 (EGFR-L861Q), 3.87 nM; at BaF3 (HER2-A775insYVMA) it was 10.8 nM. For the same compound, the results for the GI50 at BaF3 (HER2-P780insGSP) and at BaF3 (HER2-G776insVC) were 6.58 nM and 1.83 nM, respectively. On HER4 kinase, the inhibition at 1 µM was more than 98%. The inhibition at 10 µM on HER4 kinase was more than 98%.

Values taken from patent US12258344B2, “Azaaromatic amide derivatives for the treatment of cancer” (SHENZHEN FORWARD PHARMACEUTICALS CO., LTD., priority 2019, dated 2025).
